Test results taken from PubChem BioAssay AID330 (DTP/NCI, 2004).
Values joined by “and” are separate entries in the source; they are usually repeats but may differ in a detail not shown here. Identical values can stand only once. Inconclusive results and toxic doses are left out.

Tested on: P388 leukemia ip, CD2F1 mice, survival T/C
Experiment: NCI In Vivo Anticancer Drug Screen. Data for tumor model P388 Leukemia (intraperitoneal) in CD2F1 (CDF1) mice
Conditions: endpoint: median survival time, higher = longer survival
Procedure, shortened: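 Mice carrying the transplanted tumor received test compound or vehicle. Survival was recorded in each group, and the value is the treated-group measurement divided by that of the vehicle-treated control group.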

[1] = dose: 50.0 mg/kg/injection, schedule: Q01DX005 (ip), vehicle: Klucel (hydroxypropylcellulose) (HPC)
[2] = dose: 200.0 mg/kg/injection, schedule: Q01DX005 (ip), vehicle: Klucel (hydroxypropylcellulose) (HPC)
[3] = dose: 50.0 mg/kg/injection, schedule: Q01DX009 (ip), vehicle: saline with Tween-80
[4] = dose: 50.0 mg/kg/injection, schedule: Q01DX005 (ip), vehicle: saline with Tween-80
[5] = dose: 100.0 mg/kg/injection, schedule: Q01DX005 (ip), vehicle: saline with Tween-80
[6] = dose: 200.0 mg/kg/injection, schedule: Q01DX005 (ip), vehicle: saline with Tween-80
[7] = dose: 100.0 mg/kg/injection, schedule: Q01DX005 (ip), vehicle: Klucel (hydroxypropylcellulose) (HPC)

For Cc1cc2ccccc2c(N=Cc2cc(Br)cc(Br)c2O)c1C#N, the T/C (dose: 100.0 mg/kg/injection, schedule: Q01DX001 (ip), vehicle: saline with Tween-80) was 95 % of control, the T/C (dose: 200.0 mg/kg/injection, schedule: Q01DX001 (ip), vehicle: saline with Tween-80) was 98 % of control and the T/C (dose: 400.0 mg/kg/injection, schedule: Q01DX001 (ip), vehicle: saline with Tween-80) was 112 % of control.

For CCOc1c(N=Nc2ccc(Br)cc2)c(C)nn1C(=S)SC, the T/C (dose: 60.0 mg/kg/injection, schedule: Q01DX005 (ip), vehicle: Klucel (hydroxypropylcellulose) (HPC)) was 93 % of control, the T/C (dose: 120.0 mg/kg/injection, schedule: Q01DX005 (ip), vehicle: Klucel (hydroxypropylcellulose) (HPC)) was 92 % of control and the T/C (dose: 240.0 mg/kg/injection, schedule: Q01DX005 (ip), vehicle: Klucel (hydroxypropylcellulose) (HPC)) was 98 % of control.

For NC(=O)c1nc2c(N)nc(-c3ccccc3)nc2nc1N, the T/C (dose: 150.0 mg/kg/injection, schedule: Q01DX009 (ip), vehicle: saline with Tween-80) was 94 % of control and the T/C (dose: 300.0 mg/kg/injection, schedule: Q01DX009 (ip), vehicle: saline with Tween-80) was 95 % of control.

For CCCCCCCCCCCC1=C(O)C(=O)C(CC2=C(O)C(=O)C(CCCCCCCCCCC)=C(O)C2=O)=C(O)C1=O, the T/C (dose: 25.0 mg/kg/injection, schedule: Q01DX005 (ip), vehicle: Klucel + Tween-80) was 97 % of control, the T/C [1] was 86 % of control and the T/C (dose: 50.0 mg/kg/injection, schedule: Q01DX005 (ip), vehicle: Klucel + Tween-80) was 91 % of control. For the same compound, the T/C (dose: 100.0 mg/kg/injection, schedule: Q01DX005 (ip), vehicle: Klucel + Tween-80) was 91 % of control and the T/C [2] was 89 % of control.

With Cc1nnc(N/N=C/c2ccccc2)n1/N=C\c1ccccc1 the T/C (dose: 100.0 mg/kg/injection, schedule: Q04DX003 (ip), vehicle: Klucel (hydroxypropylcellulose) (HPC)) was 101 % of control, the T/C (dose: 200.0 mg/kg/injection, schedule: Q04DX003 (ip), vehicle: Klucel (hydroxypropylcellulose) (HPC)) was 100 % of control and the T/C (dose: 400.0 mg/kg/injection, schedule: Q04DX003 (ip), vehicle: Klucel (hydroxypropylcellulose) (HPC)) was 105 % of control.

In the case of Cc1cc(N=Nc2ccncc2C)ccc1N, the T/C (dose: 6.25 mg/kg/injection, schedule: Q01DX009 (ip), vehicle: saline with Tween-80) is reported as 106 % of control, the T/C (dose: 12.5 mg/kg/injection, schedule: Q01DX009 (ip), vehicle: saline with Tween-80) is reported as 104 % of control and the T/C (dose: 25.0 mg/kg/injection, schedule: Q01DX009 (ip), vehicle: saline with Tween-80) is reported as 100 % of control. For the same compound, the T/C [3] was 92 % of control.

CCCCS(=O)(=O)CCC(N)C(=O)O (configuration not stated) was tested, and the T/C (dose: 60.0 mg/kg/injection, schedule: Q01DX005 (ip), vehicle: saline with Tween-80) was 94 % of control and the T/C (dose: 120.0 mg/kg/injection, schedule: Q01DX005 (ip), vehicle: saline with Tween-80) was 90 % of control.

With NC(=Nc1ccc(S(=O)(=O)Nc2cnc3ccccc3n2)cc1)/N=C(/N)Nc1ccc(Br)cc1 the T/C [4] was 99 % of control, the T/C [5] was 100 % of control and the T/C [6] was 99 % of control.

In the case of CC(=O)O[C@@H]1[C@@H](O)[C@H]2O[C@@H]3C=C(C)CC[C@]3(CO)[C@]1(C)[C@@]21CO1, the T/C (dose: 1.25 mg/kg/injection, schedule: Q01DX009 (ip), vehicle: saline with Tween-80) is reported as 110 % of control and 120 % of control, the T/C (dose: 2.5 mg/kg/injection, schedule: Q01DX009 (ip), vehicle: saline with Tween-80) is reported as 118 % of control and 121 % of control and the T/C (dose: 5.0 mg/kg/injection, schedule: Q01DX009 (ip), vehicle: saline with Tween-80) is reported as 120 % of control. For the same compound, the T/C (dose: 20.0 mg/kg/injection, schedule: Q01DX009 (ip), vehicle: saline with Tween-80) was 93 % of control.

In the case of CCN(CC)c1ccc(C=C2C(=O)NC(=S)NC2=O)cc1, the T/C (dose: 25.0 mg/kg/injection, schedule: Q01DX005 (ip), vehicle: Klucel (hydroxypropylcellulose) (HPC)) is reported as 101 % of control, the T/C [1] is reported as 100 % of control and the T/C [7] is reported as 101 % of control. For the same compound, the T/C [2] was 100 % of control.

CN=S(=O)(OCCCCCOS(=O)(=NC)c1ccccc1)c1ccccc1 (configuration not stated) was tested, and the T/C [3] was 124 % of control and the T/C (dose: 200.0 mg/kg/injection, schedule: Q01DX009 (ip), vehicle: saline with Tween-80) was 158 % of control and 170 % of control.

NC(CCSSCCC(N)P(=O)(O)O)P(=O)(O)O (configuration not stated) was tested, and the T/C [4] was 95 % of control, the T/C [5] was 92 % of control and the T/C [6] was 99 % of control.

In the case of Cc1ccc(S(=O)CC2=NC(C)(C)CO2)cc1 (configuration not stated), the T/C (dose: 50.0 mg/kg/injection, schedule: Q01DX005 (ip), vehicle: saline) is reported as 104 % of control, the T/C (dose: 100.0 mg/kg/injection, schedule: Q01DX005 (ip), vehicle: saline) is reported as 98 % of control and the T/C (dose: 200.0 mg/kg/injection, schedule: Q01DX005 (ip), vehicle: saline) is reported as 103 % of control.

For CCN(C(=O)CCl)C(C)(C)C(SSSC(c1ccc(Cl)cc1)C(C)(C)N(CC)C(=O)CCl)c1ccc(Cl)cc1 (configuration not stated), the T/C (dose: 50.0 mg/kg/injection, schedule: Q04DX003 (ip), vehicle: saline) was 104 % of control, the T/C (dose: 100.0 mg/kg/injection, schedule: Q04DX003 (ip), vehicle: saline) was 113 % of control and the T/C (dose: 200.0 mg/kg/injection, schedule: Q04DX003 (ip), vehicle: saline) was 109 % of control.

In the case of O=C(O)CN1CC(=O)N(c2ccccc2)C1=S, the T/C (dose: 50.0 mg/kg/injection, schedule: Q01DX009 (ip), vehicle: saline) is reported as 101 % of control, the T/C (dose: 100.0 mg/kg/injection, schedule: Q01DX009 (ip), vehicle: saline) is reported as 97 % of control and the T/C (dose: 200.0 mg/kg/injection, schedule: Q01DX009 (ip), vehicle: saline) is reported as 93 % of control.

In the case of Cc1oc2c(C)c3oc(=O)cc(C)c3cc2c1CO, the T/C (dose: 100.0 mg/kg/injection, schedule: Q05DX002 (ip), vehicle: Klucel (hydroxypropylcellulose) (HPC)) is reported as 92 % of control, the T/C (dose: 200.0 mg/kg/injection, schedule: Q05DX002 (ip), vehicle: Klucel (hydroxypropylcellulose) (HPC)) is reported as 97 % of control and the T/C (dose: 400.0 mg/kg/injection, schedule: Q05DX002 (ip), vehicle: Klucel (hydroxypropylcellulose) (HPC)) is reported as 95 % of control.

For COc1nc2nc(Cl)cc(C)c2c2ccccc12 (tested in a mixture with another compound), the T/C [4] was 104 % of control, the T/C [5] was 104 % of control and the T/C [6] was 92 % of control.

With CSc1nc(Cl)c2ncn(C3C=CC(OC(C)=O)CO3)c2n1 (configuration not stated) the T/C [1] was 103 % of control, the T/C [7] was 99 % of control and the T/C [2] was 109 % of control.

With CCOC(=O)C1(C(=O)O)CCCN(C(=O)OCc2ccccc2)C1Cc1ccccc1 (configuration not stated) the T/C (dose: 100.0 mg/kg/injection, schedule: Q01DX001 (ip), vehicle: Klucel (hydroxypropylcellulose) (HPC)) was 99 % of control, the T/C (dose: 200.0 mg/kg/injection, schedule: Q01DX001 (ip), vehicle: Klucel (hydroxypropylcellulose) (HPC)) was 102 % of control and the T/C (dose: 400.0 mg/kg/injection, schedule: Q01DX001 (ip), vehicle: Klucel (hydroxypropylcellulose) (HPC)) was 93 % of control.

In the case of CCN(CC)CCCC(C)Nc1cc(/C=C/c2ccc(Cl)cc2)nc2cc(N(C)C)ccc12 (configuration not stated), the T/C (dose: 3.12 mg/kg/injection, schedule: Q01DX009 (ip), vehicle: Klucel (hydroxypropylcellulose) (HPC)) is reported as 107 % of control, the T/C (dose: 6.25 mg/kg/injection, schedule: Q01DX009 (ip), vehicle: Klucel (hydroxypropylcellulose) (HPC)) is reported as 110 % of control and the T/C (dose: 12.5 mg/kg/injection, schedule: Q01DX009 (ip), vehicle: Klucel (hydroxypropylcellulose) (HPC)) is reported as 98 % of control and 102 % of control.
